Where two headings read alike, the source gives them in different places.
Key:
rats = rats (Iwasaki, 2008); cited from earlier work
[1] = tested on: Human primary small intestinal epithelial cells (HSIEC)
mice = conditions: intraplantar injections (Bandell, 2004); cited from earlier work
A-172 glioblastoma cells = assay: MTT cell viability assay in A-172 cells
individuals [2] = assay: Minimum effective dose (MED, MED50) and perceived effects of 5HT2A agonist with or without TRP agonists in individuals; type: in vivo, human
BDNF = BDNF in A-172 cells; type: cell-based; conditions: escalating doses
From the text: (§1) This experiment was designed to explore the synergistic interaction of 5HT2A agonist and a TRP agonists on receptors in the brain that are associated with depression and/or inflammation. […] The development of an inflammatory microenvironment is considered important to the initiation and progression of glioblastoma; however, therapeutic approaches to target inflammation have previously been limited. The abnormal function of IL-6 and IL-8 has been predicted to lead to glioblastoma.
(§2) Thus, unlike the experiments on HSIEC cells described above, no inflammatory treatment was applied to the A-172 cells. The A-172 cells were grown to […] confluence on T-25 flasks to allow a 96-hour duration of exposure of the cells to the compounds of interest

iNOS = iNOS in HSIEC cells treated with TNF-α/IFN-γ; type: cell-based, human; conditions: 5, 10, 20, 40 μM
GABA = GABA in A-172 cells; type: cell-based; conditions: escalating doses
From the text: as §1, §2

individuals [3] = assay: Surveys of participants using the formulations (music festival, wellness retreat, home use); conditions: surveys and self-report
Protocol: Edible chew and capsule formulations including the Base 07—Complete with coffee beans, the 5HT2A agonist alone with corn starch (positive control) or sugar and placebo formulations including corn starch (negative control) or sugar alone (double negative control) were prepared and provided to small groups of individuals for assessment of the effects of the compositions.
The formulations also included additional GRAS material. […] Some studies were undertaken in the context of a music festival. Other studies were undertaken at psilocybin retreat events. Numerous individuals also self-administered the formulations in their personal space and observed their daily routines over an extended number of days of using the formulations. Exclusion criteria were applied in a questionnaire to exclude individuals with a schizophrenia diagnosis, individuals with a family history of schizophrenia, pregnant individuals, minors and other high-risk categories for using psilocybin.
Typically, between 1 and 9 dosage units were provided to each participant per day. The studies varied in duration from one day to four weeks. Heavier individuals (<75 kg) were typically given larger dosages.
On multiple occasions a standard dose of the chocolate format of the complete recipe was distributed prior to a music festival event in Jamaica. […]

O=C/C=C/c1ccccc1 [cinnamaldehyde, (2E)-3-phenylprop-2-enal]
adrenaline secretions (rats): increasing adrenaline secretions
Cellular Metabolic Activity ([1]; 5 μM, 24 h): 0.183
Cellular Metabolic Activity ([1]; 5 μM, 48 h): 0.148
Cellular Metabolic Activity ([1]; 5 μM, 72 h): 0.236
Cellular Metabolic Activity ([1]; 5 μM, 96 h): 0.423
Cellular Metabolic Activity ([1]; 5 μM, time 0): 0.026
Cellular Metabolic Activity ([1]; 10 μM, 24 h): 0.166
Cellular Metabolic Activity ([1]; 10 μM, 48 h): 0.119
Cellular Metabolic Activity ([1]; 10 μM, 72 h): 0.160
Cellular Metabolic Activity ([1]; 10 μM, 96 h): 0.321
Cellular Metabolic Activity ([1]; 10 μM, time 0): 0.022
Cellular Metabolic Activity ([1]; 20 μM, 24 h): 0.169
Cellular Metabolic Activity ([1]; 20 μM, 48 h): 0.095
Cellular Metabolic Activity ([1]; 20 μM, 72 h): 0.105
Cellular Metabolic Activity ([1]; 20 μM, 96 h): 0.152
Cellular Metabolic Activity ([1]; 20 μM, time 0): 0.025
Cellular Metabolic Activity ([1]; 40 μM, 24 h): 0.171
Cellular Metabolic Activity ([1]; 40 μM, 48 h): 0.049
Cellular Metabolic Activity ([1]; 40 μM, 72 h): 0.018
Cellular Metabolic Activity ([1]; 40 μM, 96 h): 0.015
Cellular Metabolic Activity ([1]; 40 μM, time 0): 0.026
Cellular Metabolic Activity ([1]; 80 μM, 24 h): 0.175
Cellular Metabolic Activity ([1]; 80 μM, 48 h): 0.021
Cellular Metabolic Activity ([1]; 80 μM, 72 h): 0
Cellular Metabolic Activity ([1]; 80 μM, time 0): 0.030
Cellular Metabolic Activity ([1]; 100 μM, 24 h): 0.171
Cellular Metabolic Activity ([1]; 100 μM, 48 h): 0.016
Cellular Metabolic Activity ([1]; 100 μM, time 0): 0.027
Cellular Metabolic Activity ([1]; 200 μM, 24 h): 0.191
Cellular Metabolic Activity ([1]; 200 μM, 48 h): 0.009
Cellular Metabolic Activity ([1]; 200 μM, time 0): 0.031
concentration above which inhibitory effect / significant toxicity (MTT) ([1]; human): over 10 μM
nociceptive behavior (mice): cause nociceptive behavior

CN(C)CCc1c[nH]c2cccc(OP(=O)(O)O)c12 [psilocybin, 3-[2-(dimethylamino)ethyl]-4-phosphoryloxyindole, reference compound]
Cellular Metabolic Activity (A-172 glioblastoma cells; 5 μM, 24 h): 0.155
Cellular Metabolic Activity (A-172 glioblastoma cells; 5 μM, 48 h): 0.253
Cellular Metabolic Activity (A-172 glioblastoma cells; 5 μM, 72 h): 0.374
Cellular Metabolic Activity (A-172 glioblastoma cells; 5 μM, 96 h): 0.530
Cellular Metabolic Activity (A-172 glioblastoma cells; 5 μM, time 0): 0.090
Cellular Metabolic Activity (A-172 glioblastoma cells; 10 μM, 24 h): 0.181
Cellular Metabolic Activity (A-172 glioblastoma cells; 10 μM, 48 h): 0.269
Cellular Metabolic Activity (A-172 glioblastoma cells; 10 μM, 72 h): 0.363
Cellular Metabolic Activity (A-172 glioblastoma cells; 10 μM, 96 h): 0.577
Cellular Metabolic Activity (A-172 glioblastoma cells; 10 μM, time 0): 0.090
Cellular Metabolic Activity (A-172 glioblastoma cells; 20 μM, 24 h): 0.201
Cellular Metabolic Activity (A-172 glioblastoma cells; 20 μM, 48 h): 0.303
Cellular Metabolic Activity (A-172 glioblastoma cells; 20 μM, 72 h): 0.370
Cellular Metabolic Activity (A-172 glioblastoma cells; 20 μM, 96 h): 0.636
Cellular Metabolic Activity (A-172 glioblastoma cells; 20 μM, time 0): 0.082
Cellular Metabolic Activity (A-172 glioblastoma cells; 40 μM, 24 h): 0.287
Cellular Metabolic Activity (A-172 glioblastoma cells; 40 μM, 48 h): 0.369
Cellular Metabolic Activity (A-172 glioblastoma cells; 40 μM, 72 h): 0.457
Cellular Metabolic Activity (A-172 glioblastoma cells; 40 μM, 96 h): 0.703
Cellular Metabolic Activity (A-172 glioblastoma cells; 40 μM, time 0): 0.086
Cellular Metabolic Activity (A-172 glioblastoma cells; 80 μM, 24 h): 0.469
Cellular Metabolic Activity (A-172 glioblastoma cells; 80 μM, 48 h): 0.528
Cellular Metabolic Activity (A-172 glioblastoma cells; 80 μM, 72 h): 0.586
Cellular Metabolic Activity (A-172 glioblastoma cells; 80 μM, 96 h): 0.871
Cellular Metabolic Activity (A-172 glioblastoma cells; 80 μM, time 0): 0.084
effect on cell growth (MTT, words) (A-172 glioblastoma cells; A-172, psilocybin 80 μM): modest increase in cell growth
reduction in the MED50 with TRP agonists added (individuals [2]; FIGS. 6 to 8): ~60%
MED (dose for 100% of individuals to report a psychoactive effect) (individuals [2]; oral, 70 kg individual): over 0.3 g of dried fruiting bodies
doses resulting in the decrease of BDNF (BDNF): 20 µM
dose reducing iNOS to the greatest extent (iNOS): 10 µM
dose resulting in the greatest increase of GABA (GABA): 5 µM
side effects / tolerance / intoxication (individuals [3]): no reports of intoxication or other psychoactive effects to a degree that influenced motor skills or coordination
effect on cell growth / cellular metabolic activity (MTT, words) [1]: increase growth of cells
Cellular Metabolic Activity ([1]; 5 μM, 24 h): 0.098
Cellular Metabolic Activity ([1]; 5 μM, 48 h): 0.186
Cellular Metabolic Activity ([1]; 5 μM, 72 h): 0.380
Cellular Metabolic Activity ([1]; 5 μM, 96 h): 0.621
Cellular Metabolic Activity ([1]; 5 μM, time 0): 0.047
Cellular Metabolic Activity ([1]; 10 μM, 24 h): 0.107
Cellular Metabolic Activity ([1]; 10 μM, 48 h): 0.198
Cellular Metabolic Activity ([1]; 10 μM, 72 h): 0.388
Cellular Metabolic Activity ([1]; 10 μM, 96 h): 0.624
Cellular Metabolic Activity ([1]; 10 μM, time 0): 0.038
Cellular Metabolic Activity ([1]; 20 μM, 24 h): 0.150
Cellular Metabolic Activity ([1]; 20 μM, 48 h): 0.238
Cellular Metabolic Activity ([1]; 20 μM, 72 h): 0.415
Cellular Metabolic Activity ([1]; 20 μM, 96 h): 0.635
Cellular Metabolic Activity ([1]; 20 μM, time 0): 0.038
Cellular Metabolic Activity ([1]; 40 μM, 24 h): 0.182
Cellular Metabolic Activity ([1]; 40 μM, 48 h): 0.259
Cellular Metabolic Activity ([1]; 40 μM, 72 h): 0.467
Cellular Metabolic Activity ([1]; 40 μM, 96 h): 0.685
Cellular Metabolic Activity ([1]; 40 μM, time 0): 0.041
Cellular Metabolic Activity ([1]; 80 μM, 24 h): 0.345
Cellular Metabolic Activity ([1]; 80 μM, 48 h): 0.371
Cellular Metabolic Activity ([1]; 80 μM, 72 h): 0.579
Cellular Metabolic Activity ([1]; 80 μM, 96 h): 0.805
Cellular Metabolic Activity ([1]; 80 μM, time 0): 0.042
Cellular Metabolic Activity ([1]; 160 μM, 24 h): 0.523
Cellular Metabolic Activity ([1]; 160 μM, 48 h): 0.604
Cellular Metabolic Activity ([1]; 160 μM, 72 h): 0.808
Cellular Metabolic Activity ([1]; 160 μM, 96 h): 1.099
Cellular Metabolic Activity ([1]; 160 μM, time 0): 0.042
